Reference: ChEMBL document CHEMBL6109129, “Discovery of Conformationally Constrained Dihydro Benzo-Indole Derivatives as Metallo-β-Lactamase Inhibitors to Tackle Multidrug-Resistant Bacterial Infections” (J Med Chem, 2025)
The source made the active and inactive calls. The calls are words filed in the database; no cut-off is given here.

Tests used:
Escherichia coli [1] = assay: Synergistic antibacterial activity against carbapenem-resistant Escherichia coli BAA-2471 assessed as reduction in microbial growth at 0.5 ug/ml measured after 16 to 18 hrs in presence of imipenem by microbial dilution method; format: functional; conditions: dose 0.5 µg/ml, time 16-18 hrs
[2] = Octanol/aqueous buffer distribution coefficient, log D of the compound at pH 7.4 incubated for 4 hrs under shaking condition by HPLC analysis; format: physicochemical
Klebsiella pneumoniae [3] = assay: Synergistic antibacterial activity against carbapenem-resistant Klebsiella pneumoniae 552439 assessed as reduction in microbial growth at 4 ug/ml measured after 16 to 18 hrs in presence of imipenem by microbial dilution method; format: functional; conditions: dose 4 µg/ml, time 16-18 hrs
[4] = Metabolic stability in mouse liver microsomes assessed as parent compound remaining at 1 uM measured at 60 mins in presence of NADPH by LC-MS/MS analysis; format: ADME, Microsome; conditions: read-out: Stability
[5] = Plasma protein binding in mouse assessed as unbound fraction at 10 uM measured after 5 hrs by LC-MS/MS analysis; format: ADME, cell-free
Klebsiella pneumoniae [6] = assay: Synergistic antibacterial activity against carbapenem-resistant Klebsiella pneumoniae 552439 assessed as reduction in microbial growth at 4 ug/ml measured after 16 to 18 hrs in presence of meropenem by microbial dilution method; format: functional; conditions: dose 4 µg/ml, time 16-18 hrs
[7] = Inhibition of VIM-1 (unknown origin) using FC5 as substrate preincubated for 10 mins followed by substrate addition and measured immediately by fluorescence based analysis; set-up: species or system Bacteria
Klebsiella pneumoniae [8] = assay: Synergistic antibacterial activity against carbapenem-resistant Klebsiella pneumoniae 571278 assessed as reduction in microbial growth at 4 ug/ml measured after 16 to 18 hrs in presence of imipenem by microbial dilution method; format: functional; conditions: dose 4 µg/ml, time 16-18 hrs
[9] = tested on: Klebsiella pneumoniae subsp. pneumoniae; assay: Synergistic antibacterial activity against carbapenem-resistant Klebsiella pneumoniae BAA-2470 assessed as reduction in microbial growth at 16 ug/ml measured after 16 to 18 hrs in presence of meropenem by microbial dilution method; format: functional; conditions: dose 16 µg/ml, time 16-18 hrs
[10] = tested on: Klebsiella pneumoniae subsp. pneumoniae; assay: Synergistic antibacterial activity against carbapenem-resistant Klebsiella pneumoniae BAA-2472 assessed as reduction in microbial growth at 16 ug/ml measured after 16 to 18 hrs in presence of meropenem by microbial dilution method; format: functional; conditions: dose 16 µg/ml, time 16-18 hrs
Klebsiella pneumoniae [11] = assay: Synergistic antibacterial activity against carbapenem-resistant Klebsiella pneumoniae BAA-2473 assessed as reduction in microbial growth at 0.5 ug/ml measured after 16 to 18 hrs in presence of imipenem by microbial dilution method; format: functional; conditions: dose 0.5 µg/ml, time 16-18 hrs
HepG2 = assay: Cytotoxicity in human HepG2 cells assessed as inhibition of cell growth measured after 24 hrs by MTT assay; format: functional, cell-based; conditions: HepG2, 24 h
[12] = tested on: Klebsiella pneumoniae subsp. pneumoniae; assay: Synergistic antibacterial activity against carbapenem-resistant Klebsiella pneumoniae subsp. pneumoniae BAA-2472 assessed as reduction in microbial growth at 0.5 ug/ml measured after 16 to 18 hrs in presence of imipenem by microbial dilution method; format: functional; conditions: dose 0.5 µg/ml, time 16-18 hrs
Klebsiella pneumoniae [13] = assay: Synergistic antibacterial activity against carbapenem-resistant Klebsiella pneumoniae 538961 assessed as reduction in microbial growth at 16 ug/ml measured after 16 to 18 hrs in presence of meropenem by microbial dilution method; format: functional; conditions: dose 16 µg/ml, time 16-18 hrs
[14] = target: Metallo-beta-lactamase type 2 (Bacteria) (UniProt C7C422); assay: Induction of thermal stabilization of NDM-1 (unknown origin) assessed as melting temperature at 3.12 uM by differential scanning fluorimetry analysis
Metallo-beta-lactamase type 2 (Bacteria), sequence (C7C422 whole entry): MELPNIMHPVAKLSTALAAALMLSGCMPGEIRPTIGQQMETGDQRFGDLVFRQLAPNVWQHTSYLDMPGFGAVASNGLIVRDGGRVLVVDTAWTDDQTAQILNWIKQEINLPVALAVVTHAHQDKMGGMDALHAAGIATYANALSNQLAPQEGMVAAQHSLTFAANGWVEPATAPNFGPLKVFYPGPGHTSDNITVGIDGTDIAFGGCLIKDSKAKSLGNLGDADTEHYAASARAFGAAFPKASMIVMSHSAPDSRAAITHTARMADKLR

Klebsiella pneumoniae [15] = assay: Synergistic antibacterial activity against carbapenem-resistant Klebsiella pneumoniae 552439 assessed as reduction in microbial growth at 16 ug/ml measured after 16 to 18 hrs in presence of imipenem by microbial dilution method; format: functional; conditions: dose 16 µg/ml, time 16-18 hrs
Escherichia coli [16] = assay: Synergistic antibacterial activity against carbapenem-resistant Escherichia coli 565988 assessed as reduction in microbial growth at 16 ug/ml measured after 16 to 18 hrs in presence of imipenem by microbial dilution method; format: functional; conditions: dose 16 µg/ml, time 16-18 hrs
Escherichia coli [17] = assay: Synergistic antibacterial activity against carbapenem-resistant Escherichia coli 541588 assessed as reduction in microbial growth at 16 ug/ml measured after 16 to 18 hrs in presence of imipenem by microbial dilution method; format: functional; conditions: dose 16 µg/ml, time 16-18 hrs
Klebsiella pneumoniae [18] = assay: Synergistic antibacterial activity against carbapenem-resistant Klebsiella pneumoniae 538961 assessed as reduction in microbial growth at 4 ug/ml measured after 16 to 18 hrs in presence of meropenem by microbial dilution method; format: functional; conditions: dose 4 µg/ml, time 16-18 hrs
Escherichia coli [19] = assay: Synergistic antibacterial activity against carbapenem-resistant Escherichia coli 565988 assessed as reduction in microbial growth at 4 ug/ml measured after 16 to 18 hrs in presence of meropenem by microbial dilution method; format: functional; conditions: dose 4 µg/ml, time 16-18 hrs
Klebsiella pneumoniae [20] = assay: Synergistic antibacterial activity against Klebsiella pneumoniae ATCC BAA 2146 expressing NDM-1 measured after 16 to 18 hrs in presence of meropenem by microbial dilution method; format: functional, organism-based; conditions: time 16-18 hrs
[21] = tested on: Klebsiella pneumoniae subsp. pneumoniae; assay: Synergistic antibacterial activity against carbapenem-resistant Klebsiella pneumoniae BAA-2472 assessed as reduction in microbial growth at 16 ug/ml measured after 16 to 18 hrs in presence of imipenem by microbial dilution method; format: functional; conditions: dose 16 µg/ml, time 16-18 hrs
Klebsiella pneumoniae [22] = assay: Synergistic antibacterial activity against carbapenem-resistant Klebsiella pneumoniae 538961 assessed as reduction in microbial growth at 16 ug/ml measured after 16 to 18 hrs in presence of imipenem by microbial dilution method; format: functional; conditions: dose 16 µg/ml, time 16-18 hrs
[23] = tested on: Klebsiella pneumoniae subsp. pneumoniae; assay: Synergistic antibacterial activity against carbapenem-resistant Klebsiella pneumoniae subsp. pneumoniae BAA-2470 assessed as reduction in microbial growth at 0.5 ug/ml measured after 16 to 18 hrs in presence of imipenem by microbial dilution method; format: functional; conditions: dose 0.5 µg/ml, time 16-18 hrs
Escherichia coli [24] = assay: Synergistic antibacterial activity against carbapenem-resistant Escherichia coli 567975 assessed as reduction in microbial growth at 16 ug/ml measured after 16 to 18 hrs in presence of meropenem by microbial dilution method; format: functional; conditions: dose 16 µg/ml, time 16-18 hrs
Klebsiella pneumoniae [25] = assay: Synergistic antibacterial activity against carbapenem-resistant Klebsiella pneumoniae 565345 assessed as reduction in microbial growth at 16 ug/ml measured after 16 to 18 hrs in presence of meropenem by microbial dilution method; format: functional; conditions: dose 16 µg/ml, time 16-18 hrs
[26] = target: Metallo-beta-lactamase type 2 (Bacteria) (UniProt C7C422); assay: Induction of thermal stabilization of NDM-1 (unknown origin) assessed as melting temperature at 12.5 uM by differential scanning fluorimetry analysis
Klebsiella pneumoniae [27] = assay: Synergistic antibacterial activity against carbapenem-resistant Klebsiella pneumoniae BAA-2473 assessed as reduction in microbial growth at 0.5 ug/ml measured after 16 to 18 hrs in presence of meropenem by microbial dilution method; format: functional; conditions: dose 0.5 µg/ml, time 16-18 hrs
Klebsiella pneumoniae [28] = assay: Synergistic antibacterial activity against carbapenem-resistant Klebsiella pneumoniae 571278 assessed as reduction in microbial growth at 16 ug/ml measured after 16 to 18 hrs in presence of meropenem by microbial dilution method; format: functional; conditions: dose 16 µg/ml, time 16-18 hrs
[29] = tested on: Klebsiella pneumoniae subsp. pneumoniae; assay: Synergistic antibacterial activity against carbapenem-resistant Klebsiella pneumoniae subsp. pneumoniae BAA-2470 assessed as reduction in microbial growth at 8 ug/ml measured after 16 to 18 hrs in presence of imipenem by microbial dilution method; format: functional; conditions: dose 8 µg/ml, time 16-18 hrs
Escherichia coli [30] = assay: Synergistic antibacterial activity against carbapenem-resistant Escherichia coli 567975 assessed as reduction in microbial growth at 4 ug/ml measured after 16 to 18 hrs in presence of imipenem by microbial dilution method; format: functional; conditions: dose 4 µg/ml, time 16-18 hrs
[31] = tested on: Klebsiella pneumoniae subsp. pneumoniae; assay: Synergistic antibacterial activity against carbapenem-resistant Klebsiella pneumoniae subsp. pneumoniae BAA-2472 assessed as reduction in microbial growth at 8 ug/ml measured after 16 to 18 hrs in presence of imipenem by microbial dilution method; format: functional; conditions: dose 8 µg/ml, time 16-18 hrs

COc1ccc(Cl)cc1-c1c(C(=O)O)[nH]c2c1CCc1ccccc1-2
MIC (Escherichia coli [1]): 32 µg/mL | logD at 4 h [2]: 2.58 | MIC (Klebsiella pneumoniae [3]): 4 µg/mL | remaining at 1 h, 1 µM [4]: 44.2% | fraction unbound at 5 h, 10 µM [5]: 0.952 | MIC (Klebsiella pneumoniae [6]): 16 µg/mL | IC50 [7]: 21 nM | MIC (Klebsiella pneumoniae [8]): 8 µg/mL | MIC [9]: 4 µg/mL | MIC [10]: 32 µg/mL | MIC (Klebsiella pneumoniae [11]): 64 µg/mL | IC50 (HepG2): > 400000 nM | MIC [12]: 64 µg/mL | MIC (Klebsiella pneumoniae [13]): 4 µg/mL | Tm [14]: 14 °C | MIC (Klebsiella pneumoniae [15]): 1 µg/mL | MIC (Escherichia coli [16]): < 0.5 µg/mL | MIC (Escherichia coli [17]): 1 µg/mL | MIC (Klebsiella pneumoniae [18]): 16 µg/mL | MIC (Escherichia coli [19]): 1 µg/mL | Activity (Klebsiella pneumoniae [20]): Active | MIC [21]: 8 µg/mL | MIC (Klebsiella pneumoniae [22]): 2 µg/mL | MIC [23]: 16 µg/mL | MIC (Escherichia coli [24]): < 0.5 µg/mL | MIC (Klebsiella pneumoniae [25]): 1 µg/mL | Tm [26]: 18 °C | MIC (Klebsiella pneumoniae [27]): > 64 µg/mL | MIC (Klebsiella pneumoniae [28]): 16 µg/mL | MIC [29]: 2 µg/mL | MIC (Escherichia coli [30]): 8 µg/mL | MIC [31]: 32 µg/mL
